Test results published in US20040082635A1, “Fused cyclic compounds and medicinal use thereof” (priority 2001, published 2004).
pIC50: −log10 of the molar value. Where a name gives a salt, the structure may show the parent alone.

Biological target: T1, HCV polymerase (Hepatitis C virus genotype 1b, UniProt P26663)
T1 construct: a region encoding NS5B (591 amino acids; J Virol 1991 Mar, 65(3), 1105-13) was amplified by PCR; 6 His (N); made in house; host or cells: Escherichia coli
Assay: biochemical
Settings: read-out: HCV polymerase inhibitory activity IC50

T1 sequence (P26663 2420-3010): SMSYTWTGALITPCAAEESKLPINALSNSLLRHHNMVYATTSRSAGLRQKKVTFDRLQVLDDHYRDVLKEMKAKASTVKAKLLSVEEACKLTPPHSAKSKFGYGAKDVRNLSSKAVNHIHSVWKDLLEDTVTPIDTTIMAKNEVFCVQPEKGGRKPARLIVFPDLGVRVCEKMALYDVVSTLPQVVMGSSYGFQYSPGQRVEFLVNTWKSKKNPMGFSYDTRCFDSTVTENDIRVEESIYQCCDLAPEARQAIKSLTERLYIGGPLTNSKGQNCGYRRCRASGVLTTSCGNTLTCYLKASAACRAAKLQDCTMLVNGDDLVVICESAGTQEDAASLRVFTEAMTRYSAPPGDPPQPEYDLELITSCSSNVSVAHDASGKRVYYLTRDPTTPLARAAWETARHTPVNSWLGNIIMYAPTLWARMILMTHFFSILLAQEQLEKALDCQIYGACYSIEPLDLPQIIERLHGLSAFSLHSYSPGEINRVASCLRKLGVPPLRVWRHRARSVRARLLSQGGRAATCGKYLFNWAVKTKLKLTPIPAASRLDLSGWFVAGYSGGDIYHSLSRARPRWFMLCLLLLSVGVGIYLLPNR

Row | SMILES | pIC50
1 | CC(C)NC(=O)c1ccc(-c2ccc(Cl)cc2)c(COc2ccc(-c3nc4cc(C(=O)O)ccc4n3N3CCCCC3)c(F)c2)c1 [Example 420, 2-{4-[2-(4-chlorophenyl)-5-(isopropylcarbamoyl)benzyloxy]-2-fluorophenyl}-1-piperidinobenzimidazole-5-carboxylic acid hydrochloride] | 7.82
2 | O=C(O)COc1cccc(Oc2ccc(-c3nc4cc(C(=O)O)ccc4n3C3CCCCC3)cc2)c1 [Example 141, 2-[4-(3-carboxymethyloxyphenoxy)phenyl]-1-cyclohexylbenzimidazole-5-carboxylic acid] | 6.37
3 | O=C(O)c1ccc2c(c1)nc(-c1ccc(OC(c3ccc(Cl)cc3)c3ccc(Cl)cc3)cc1)n2C1CCCCC1 [Example 118, 2-{4-[bis(4-chlorophenyl)methoxy]phenyl}-1-cyclohexylbenzimidazole-5-carboxylic acid] | 6.85
4 | CC(C)(C)c1ccc(-c2ccc(Cl)cc2COc2ccc(-c3nc4cc(C(=O)O)ccc4n3C3CCCCC3)cc2)cc1 [Example 145, 2-{4-[2-(4-tert-butylphenyl)-5-chlorobenzyloxy]phenyl}-1-cyclohexylbenzimidazole-5-carboxylic acid] | 7.06
5 | CN(C)C(=O)c1ccc(-c2ccc(Cl)cc2)c(COc2ccc(-c3nc4cc(C(=O)O)ccc4n3C3CCCC3)cc2)c1 [Example 414, 2-{4-[2-(4-chlorophenyl)-5-(dimethylcarbamoyl)benzyloxy]phenyl}-1-cyclopentylbenzimidazole-5-carboxylic acid hydrochloride] | 7.62
6 | O=C(O)c1ccc2c(c1)nc(-c1ccc(Oc3ccccc3OCC(=O)N3CCCCC3)cc1)n2C1CCCCC1 [Example 192, 1-cyclohexyl-2-{4-[2-(piperidinocarbonylmethoxy)phenoxy]-phenyl}benzimidazole-5-carboxylic acid] | 6.66
7 | CC(=O)Nc1ccc(-c2ccc(Cl)cc2)c(COc2ccc(-c3nc4cc(C(=O)O)ccc4n3C3CCCCC3)c(F)c2)c1 [Example 458, 2-[4-{2-(4-chlorophenyl)-5-(acetylamino)benzyloxy}-2-fluorophenyl]-1-cyclohexylbenzimidazole-5-carboxylic acid hydrochloride] | 7.82
8 | CN(C)C(=O)c1cccc(C(Oc2ccc(-c3nc4cc(C(=O)O)ccc4n3C3CCCCC3)c(F)c2)c2ccc(F)cc2)c1 (stereo not shown) [Example 442, 2-{4-[(3-dimethylcarbamoylphenyl)(4-fluorophenyl)methoxy]-2-fluorophenyl}-1-cyclohexylbenzimidazole-5-carboxylic acid hydrochloride] | 7.62
9 | O=C(O)c1ccc2c(c1)nc(-c1ccc(Oc3ccc(OCc4ccccc4)cc3)cc1C(F)(F)F)n2C1CCCCC1 [Example 150, 2-{4-(4-benzyloxyphenoxy)-2-trifluoromethylphenyl}-1-cyclohexylbenzimidazole-5-carboxylic acid] | 6.62
10 | O=C(O)c1ccc2c(c1)nc(-c1ccc(OCc3cc(C4=NCCN4)ccc3-c3ccc(Cl)cc3)cc1F)n2C1CCCCC1 [Example 422, 2-{4-[2-(4-chlorophenyl)-5-(2-imidazolin-2-yl)benzyloxy]-2-fluorophenyl}-1-cyclohexylbenzimidazole-5-carboxylic acid dihydrochloride] | 7.77
11 | Cc1cnc(-c2ccc(Br)c(COc3ccc(-c4nc5cc(C(=O)O)ccc5n4C4CCCCC4)cc3)c2)s1 [Example 364, 2-{4-[2-bromo-5-(5-methylthiazol-2-yl)benzyloxy]phenyl}-1-cyclohexylbenzimidazole-5-carboxylic acid hydrochloride] | 6.92
12 | CN(C)C(=O)c1ccc(-c2ccncc2)c(COc2ccc(-c3nc4cc(C(=O)O)ccc4n3C3CCCCC3)cc2)c1 [Example 320, 2-{4-[5-dimethylaminocarbonyl-2-(4-pyridyl)benzyloxy]phenyl}-1-cyclohexylbenzimidazole-5-carboxylic acid dihydrochloride] | 7.44
13 | COc1ccc(-c2ccc(Cl)cc2)c(COc2ccc(-c3nc4cc(C(=O)O)ccc4n3C3CCCCC3)c(F)c2)c1 [Example 468, 2-[4-{2-(4-chlorophenyl)-5-methoxybenzyloxy}-2-fluorophenyl]-1-cyclohexylbenzimidazole-5-carboxylic acid] | 7.55
14 | O=C(O)c1ccc2c(c1)nc(-c1ccc(COc3ccccc3-c3ccccc3)s1)n2C1CCCCC1 [Example 252, 2-[2-(2-biphenylyloxymethyl)-5-thienyl]-1-cyclohexylbenzimidazole-5-carboxylic acid] | 6.49
15 | O=C(O)c1ccc2c(c1)nc(-c1ccc(OCc3cc(C(=O)N4CCCC4)ccc3-c3ccc(Cl)cc3)cc1F)n2C1CCCCC1 [Example 287, 2-{4-[2-(4-chlorophenyl)-5-(1-pyrrolidinyl)carbonylbenzyloxy]-2-fluorophenyl}-1-cyclohexylbenzimidazole-5-carboxylic acid] | 7.92
16 | CSc1ccc(-c2ccc(Cl)cc2COc2ccc(-c3nc4cc(C(=O)O)ccc4n3C3CCCCC3)cc2)cc1 [Example 166, 2-{4-[3-chloro-6-(4-methylthiophenyl)benzyloxy]phenyl}-1-cyclohexylbenzimidazole-5-carboxylic acid] | 7.26
17 | O=C(O)c1ccc2c(c1)nc(-c1ccc(OCc3cc(Cl)ccc3-c3ccncc3)cc1)n2C1CCCCC1 [Example 315, 2-{4-[5-chloro-2-(4-pyridyl)benzyloxy]phenyl}-1-cyclohexylbenzimidazole-5-carboxylic acid hydrochloride] | 7.55
18 | O=C(O)c1ccc2c(c1)nc(-c1ccc(OCc3cc(S(=O)(=O)N4CCC(O)CC4)ccc3-c3ccc(Cl)cc3)cc1)n2C1CCCCC1 [Example 359, 2-{4-[2-(4-chlorophenyl)-5-(4-hydroxypiperidin-1-ylsulfonyl)benzyloxy]phenyl}-1-cyclohexylbenzimidazole-5-carboxylic acid hydrochloride] | 7.82
19 | O=C(O)c1ccc2c(c1)nc(-c1ccc(OCc3cc(OCCCO)ccc3-c3ccc(Cl)cc3)cc1)n2C1CCCCC1 [Example 334, 2-{4-[2-(4-chlorophenyl)-5-(3-hydroxypropyloxy)benzyloxy]phenyl}-1-cyclohexylbenzimidazole-5-carboxylic acid] | 7.80
20 | O=C(O)c1ccc2c(c1)nc(-c1ccc(OCc3ccc(F)cc3C(=O)c3cccc(F)c3)cc1F)n2C1CCCCC1 [Example 256, 1-cyclohexyl-2-{2-fluoro-4-[4-fluoro-2-(3-fluorobenzoyl)benzyloxy]phenyl}benzimidazole-5-carboxylic acid] | 7.10
21 | CN(C)C(=O)c1ccc(-c2cccc(F)c2)c(COc2ccc(-c3nc4cc(C(=O)O)ccc4n3C3CCCCC3)cc2)c1 [Example 361, 2-{4-[5-(dimethylcarbamoyl)-2-(3-fluorophenyl)benzyloxy]phenyl}-1-cyclohexylbenzimidazole-5-carboxylic acid hydrochloride] | 7.55
22 | CNC(=O)c1ccc(-c2ccc(Cl)cc2)c(COc2ccc(-c3nc4cc(C(=O)O)ccc4n3C3CCCCC3)cc2)c1 [Example 248, 2-{4-[2-(4-chlorophenyl)-5-methylcarbamoylbenzyloxy]phenyl}-1-cyclohexylbenzimidazole-5-carboxylate hydrochloride] | 7.92
